From patent US20240059658A1 (Emory University, priority 2019, published 2024)
Like-named read-outs stand apart in the source and are kept apart here. One block for each molecule: values may come before it.

Legend:
in vivo = conditions: mouse
EU-1 = experiment: WST cytotoxicity assay, cancer cell EU-1; assay type: cell-based, human
Outline: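 Pediatric ALL and NB lines grown in RPMI 1640 with 10% FBS at 37 °C, 5% CO2. Cells were exposed to a range of compound concentrations for 20 h, then WST (25 μg/well) was added for a further 4 h. OD read at 450 nm against a 620 nm reference.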

NB cell lines = experiment: Colony formation assay, NB cell lines; assay type: cell-based, human
Experimental: A clonogenic assay was used to determine the effect of MX69 analogs on in vitro growth of NB and normal human hematopoietic cells, respectively. For NB1 colony formation assay, cells were harvested with treatment by trypsinization, producing a single-cell suspension, and then 200 cells were seeded into a 6-well plate and cultured for approximately 2 weeks. Colonies were stained with a mixture of 6.0% glutaraldehyde and 0.5% crystal violet for 30 min. Then carefully removed the staining mixture, rinsed with tap water and counted the colonies.

caspases-3, -9 and PARP = experiment: Western blot, cleavage of caspases-3, -9 and PARP in EU-1 cells; assay type: cell-based
Experimental: (§1) Cells were lysed in a buffer composed of 50 mM Tris, pH 7.6, 150 mM NaCl, 1% Nonidet P-40, 10 mM sodium phosphate, 10 mM NaF, 1 mM sodium orthovanadate, 2 mM phenylmethylsulfonyl fluoride (PMSF), […], 10 μg/mL leupeptin and 10 μg/mL pepstatin. After centrifugation, the clarified cell lysate was separated from the pellet of cell debris, and then incubated with 15 μL Protein G/Protein A-agarose and 1 μg of antibodies, overnight at 4° C. For the Western blot, the resulting cell lysates or immunoprecipitates were resolved by SDS-PAGE. They were then transferred to a nitrocellulose filter and probed with the specific antibodies as listed in the supplemental Materials section. Finally, proteins were visualized with a chemiluminescent detection system.

MDM2 [1] = target: T1, MDM2 (Homo sapiens, UniProt Q00987); experiment: MDM2 reduction / expression (Western blot); assay type: cell-based; conditions: for MDM2 reduction: words or +/− grades, key not given
T1 construct: ubiquitination of endogenous MDM2 in EU-1 cells; endogenous in cells; host or cells: EU-1 (ALL) cells
T1 sequence (Q00987 whole entry): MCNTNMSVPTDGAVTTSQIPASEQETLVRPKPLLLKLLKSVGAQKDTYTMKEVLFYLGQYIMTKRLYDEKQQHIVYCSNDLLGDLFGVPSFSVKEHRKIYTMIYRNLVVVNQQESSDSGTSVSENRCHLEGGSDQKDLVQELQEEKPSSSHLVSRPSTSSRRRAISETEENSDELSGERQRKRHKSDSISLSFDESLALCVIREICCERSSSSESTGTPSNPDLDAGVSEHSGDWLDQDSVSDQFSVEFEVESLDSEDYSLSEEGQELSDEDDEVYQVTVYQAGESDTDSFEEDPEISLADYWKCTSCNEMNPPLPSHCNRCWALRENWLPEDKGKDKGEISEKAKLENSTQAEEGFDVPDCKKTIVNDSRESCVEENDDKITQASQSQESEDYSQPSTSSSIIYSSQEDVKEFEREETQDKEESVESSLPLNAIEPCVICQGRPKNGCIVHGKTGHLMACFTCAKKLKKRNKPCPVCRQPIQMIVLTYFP
Experimental: as §1

p21 and PUMA = experiment: Western blot for p53 targets p21 and PUMA in EU-1 cells; assay type: cell-based
Experimental: as §1

NB-1643 = experiment: WST cytotoxicity assay, NB-1643; assay type: cell-based; conditions: Homo sapiens; NB-1643 line; read-out: Cancer cell cytotoxicity IC50
Experimental: (§2) This study used two ALL cell lines (EU-1 and EU-3) and three NB cell lines (NB-1643, SHEP1 and LA1-55N). All 5 cancer cell lines were established from pediatric ALL or NB patients and were well-characterized for their expression of MDM2 and p53-status, as reported previously. All cell lines were grown in standard culture medium (RPMI 1640 containing 10% FBS, 2 mmol/L L-glutamine, 50 U penicillin and 50 μg/mL streptomycin) at 37° C. in a humidified atmosphere containing 5% CO2.
(§3) The cytotoxic effect of MX 69 and MX69 analogs on cancer cells was determined using the water-soluble tetrazolium salt (WST) assay. Briefly, cells cultured in 96-well microtiter plates were treated with different concentrations of AQ-101 for a 20-h period. WST (25 μg/well) was then added and incubation continued for an additional 4 h, after which optical density (OD) was read with a microplate reader (test wavelength of 450 nm; reference wavelength of 620 nm).

855 line = experiment: WST cytotoxicity assay, 855 line; assay type: cell-based; conditions: read-out: Cancer cell cytotoxicity IC50
Experimental: as §3

93-10 line = experiment: WST cytotoxicity assay, 93-10 line; assay type: cell-based; conditions: 93-10 line no MDM2 and p53; read-out: Cancer cell cytotoxicity IC50
Experimental: as §3

MDM2 [2] = target: T1, MDM2; experiment: IP-Western blot, ubiquitination of endogenous MDM2 in EU-1 cells; assay type: cell-based; conditions: 1 μM
Experimental: as §1

XIAP = XIAP inhibition / expression (Western blot); assay type: cell-based; conditions: EU-1 cells; dose-dependent
Experimental: as §1

855 luc = experiment: WST cytotoxicity assay, 855 luc; assay type: cell-based; conditions: read-out: Cancer cell cytotoxicity IC50
Experimental: as §3

XIAP mRNA = experiment: Polysome analysis of XIAP mRNA in EU-1 cells; assay type: cell-based; conditions: 1 μM for 4 h
Experimental: Cells were incubated with 100 μg/mL cycloheximide (CHX) for 15 min to arrest polyribosome migration, and then lysed (in order to isolate cytoplasmic extracts) in a buffer containing 20 mM Tris-HCl at pH 8.0, 100 mM NaCl, 5 mM MgCl2, 0.5% Triton X-100, 500 U/mL RNAsin, and a cocktail of protease inhibitors. Fractionation was performed on a 15-45% (w/v) sucrose gradient at 39,000 rpm for 1 h (SW41Ti rotor). Fractions were collected by upward replacement in a fractionator (Isco, Lincoln, NE). The RNA from each fraction was subjected to quantitative PCR.

MDM2 RING protein [3] = target: T2, MDM2 RING protein (Homo sapiens, UniProt Q00987); experiment: Compound-protein binding (ITC) to MDM2 RING protein; conditions: MDM2 RING domain
T2 sequence (Q00987 438-479 limits assumed): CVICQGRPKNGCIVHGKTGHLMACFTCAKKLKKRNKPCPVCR
Experimental: Isothermal titration calorimetry (ITC) assay was performed using the auto-iTC200 instrument (MicroCal, GE). MDM2 protein was loaded into a 96 DeepWell PP plate, and then compound was titrated stepwise into the protein sample cell using a syringe, for a total of 16 injections (except for the first injection, which was 0.4 μl). The equilibrium time between two adjacent injections was 210 s. The binding stoichiometry (n), binding constant (Kd), and thermodynamic parameters (ΔH and ΔS) were determined by fitting the titration curve to a one-site binding mode, using the Origin software provided by the manufacturer.

[4] = test system: NB cell lines NB-1643, SHEP1 and LA1-55N; experiment: WST cytotoxicity assay, NB cell lines; assay type: cell-based; conditions: Homo sapiens, NB-1643, SHEP1, LA1-55N, 48 h, read-out: IC50, cytotoxicity against NB cell lines
Experimental: as §2
as §3, with “Briefly, cells cultured in 96-well microtiter plates were treated with different concentrations of AQ-101 for a 20-h period.” left out

91-06 line = experiment: WST cytotoxicity assay, 91-06 line; assay type: cell-based; conditions: no MDM2 and p53, read-out: Cancer cell cytotoxicity IC50
Experimental: as §3

DAOY line = experiment: WST cytotoxicity assay, DAOY line; assay type: cell-based; conditions: Homo sapiens; DAOY line with MDM2/no p53; read-out: Cancer cell cytotoxicity IC50
Experimental: as §3

p53 = p53 induction / expression (Western blot); assay type: cell-based; conditions: for p53 induction: words or +/− grades, key not given
Experimental: as §1

LA1-55N = experiment: WST cytotoxicity assay, LA1-55N; assay type: cell-based, human; conditions: line does not express normal p53
Experimental: as §2, §3

[5] = test system: ALL cell lines EU-1 and EU-3; experiment: WST cytotoxicity assay, ALL cell lines; assay type: cell-based; conditions: Homo sapiens, 48 h, read-out: IC50, cytotoxicity against ALL cell lines
Experimental: as §2
as §3, with “Briefly, cells cultured in 96-well microtiter plates were treated with different concentrations of AQ-101 for a 20-h period.” left out

697 cell line = experiment: WST cytotoxicity assay, 697 cell line; assay type: cell-based; conditions: read-out: Cancer cell cytotoxicity IC50
Experimental: as §3

MYCN = MYCN inhibition; assay type: cell-based; conditions: MDM2 reduction
[6] = test system: human normal bone marrow mononuclear (NBMM) cells; experiment: Clonogenic assay for CFU-GM and BFU-E (normal hematopoiesis); assay type: cell-based; conditions: 1 μM, 14 days
Experimental: For colony formation of normal human hematopoiesis assay, a bottom layer of low-melting-point, 0.5% agarose (in RPMI 1640 medium plus 10% FBS) was poured into gridded 35 mm dishes and allowed to gel. Cells were cultured in a top layer of 0.35% agarose/medium at 37° C. in a humidified atmosphere containing 5% CO2. After 2-3 weeks, cultures were fixed with formalin and colonies scored.

MDM2 RING protein [7] = target: T2, MDM2 RING protein; conditions: Gu et al. Cancer Cell 2016; cited from earlier work
normal cells/tissues = conditions: Gu et al. Cancer Cell 2016; cited from earlier work
[8] = Homo sapiens, EU-1, EU-1, no other cell line named in the cell, read-out: Cancer cell (EU-1) cytotoxicity IC50

SMILES: COC(=O)c1ccc(C2Nc3ccc(S(=O)(=O)Nc4ccc(C)c(C)c4)cc3[C@H]3OCC[C@@H]23)cc1 (stereo partly drawn) [Compound 69L1]
MTD (in vivo): 300 mg/kg
IC50 (EU-1; [8]): 1500 to 6000 nM

SMILES: Cc1ccc(NS(=O)(=O)c2ccc3c(c2)C2OCC[C@H]2C(c2ccc(C(=O)C(C)C)cc2)N3)cc1C (stereo partly drawn) [Compound 69L52, N-(3,4-dimethylphenyl)-4-(4-isobutyrylphenyl)-2,3,3a,4,5,9b-hexahydrofuran[3,2-c]quinolone-8-sulfonamide]
Colony number and size as compared with controls (NB cell lines; NB cell lines): significant reduction
Cell growth in colony formation assay (NB cell lines; all 3 NB cell lines, two weeks): potently inhibited cell growth
Cleavage of caspases-3, -9 and PARP compared with MX69 (caspases-3, -9 and PARP; 69L52 1 μM vs MX69 5 μM): stronger cleavage
Time after treatment at which MDM2 and XIAP downregulation occurred (MDM2 [1]; EU-1 cells): 2 to 4 h
MDM2 downregulation in presence of MG132 (MDM2 [1]; EU-1 cells, 1 μM for 8 h, then 10 μM MG132 4 h): blocked by MG132
MDM2 expression (MDM2 [1]; EU-1 cells, dose-dependent): remarkable downregulation
MDM2 reduction (MDM2 [1]): inhibition
p53 downstream targets p21 and PUMA (p21 and PUMA): activation
IC50 (NB-1643): 700 nM
IC50 (855 line): 740 nM
IC50 (93-10 line): 5930 nM
Ubiquitination of endogenous MDM2 (MDM2 [2]): induced ubiquitination of endogenous MDM2
XIAP expression (XIAP): remarkable downregulation
IC50 (855 luc): 500 nM
Polyribosome association of XIAP mRNA (XIAP mRNA): downregulation in polyribosome association
MDM2 binding affinity as compared with MX69 (MDM2 RING protein [3]): Increased MDM2 Binding Affinity
IC50 [4]: 500 to 1200 nM
IC50 (EU-1; EU-1, no other cell line named in the cell, read-out: Cancer cell (EU-1) cytotoxicity IC50): 1100 to 1400 nM
IC50 (EU-1; Homo sapiens, EU-1, printed in the Mouse MTD column, control run of the cytotoxicity test, read-out: Value of the compound used as (positive) control alongside the row's compound): 460 nM
IC50 (91-06 line): 3620 nM
IC50 (DAOY line): 2170 nM
p53 expression (p53; EU-1 cells, accompanying MDM2 downregulation): increased expression
p53 induction (p53): induction
Cytotoxicity to LA1-55N compared with other cell lines (LA1-55N): much less cytotoxicity
IC50 [5]: 300 to 400 nM
IC50 (697 cell line): 450 nM

SMILES: Cc1ccc(NS(=O)(=O)c2ccc3c(c2)C2OCC[C@H]2[C@H](C2CCCCC2)N3)cc1C (stereo partly drawn) [Compound 69L53, 4-cyclohexyl-N-(3,4-dimethylphenyl)-2,3,3a,4,5,9b-hexahydrofuran[3,2-c]quinolone-8-sulfonamine]
MTD (in vivo): 300 mg/kg
MDM2 reduction (MDM2 [1]): inhibition
IC50 (NB-1643): 1730 nM
IC50 (855 line): 800 nM
MDM2 binding affinity as compared with MX69 (MDM2 RING protein [3]): Increased MDM2 Binding Affinity
p53 induction (p53): induction

MDM2 reduction (MDM2 [1]): Increase
SMILES: O=S(=O)(Nc1ccc(Cl)c(Cl)c1)c1ccc2c(c1)C1OCC[C@H]1[C@H](C1CCCCC1)N2 (stereo partly drawn) [Compound 69L60, 4-cyclohexyl-N-(3,4-dichlorophenyl)-2,3,3a,4,5,9b-hexahydrofuran[3,2-c]quinolone-8-sulfonamine]
IC50 (NB-1643): 5650 nM
IC50 (855 line): 1810 nM
IC50 (697 cell line): 2730 nM

SMILES: Cc1ccc(NS(=O)(=O)c2ccc3c(c2)C2NCC[C@H]2C(C2CCCCC2)N3)cc1C (stereo partly drawn) [Compound 69L61]
MYCN inhibition (MYCN): inhibition
IC50 (NB-1643): 1600 nM
IC50 (855 line): 2430 nM
p53 induction (p53): No p53
IC50 (697 cell line): 3600 nM

MDM2 reduction (MDM2 [1]): No MDM2
SMILES: Cc1ccc(NS(=O)(=O)c2ccc3c(c2)C2OCC[C@H]2C2(CCCCC2)N3)cc1C (stereo partly drawn) [Compound 69L62]
IC50 (NB-1643): 1300 nM
IC50 (855 line): 980 nM
IC50 (697 cell line): 490 nM

SMILES: Cc1ccc(NS(=O)(=O)c2ccc3c(c2)C2OCC[C@H]2[C@H](C2CCN(C(=O)OC(C)(C)C)CC2)N3)cc1C (stereo partly drawn) [Compound 69L64]
IC50 (855 line): 1350 nM
p53 induction (p53): induction
IC50 (697 cell line): 280 nM

SMILES: COc1cccc2c1C(=O)c1c(O)c3c(c(O)c1C2=O)C[C@@](O)(C(=O)CO)C[C@@H]3O[C@H]1C[C@H](N)[C@H](O)[C@H](C)O1 [Dox, doxorubicin]
BFU-E colony numbers and size [6]: significantly reduced
CFU-GM colony numbers and size [6]: significantly reduced

SMILES: Cc1ccc(NS(=O)(=O)c2ccc3c(c2)[C@H]2C=CC[C@H]2[C@H](c2ccc(C(=O)O)cc2)N3)cc1C [MX69, reference compound]
MTD (in vivo): 200 mg/kg
Binding to the RING domain of MDM2 (MDM2 RING protein [7]): specifically binds to the RING domain of MDM2
IC50 (EU-1; [8]): 7000 nM
Toxicity on normal cells/tissues (normal cells/tissues): minimal toxicity

SMILES: Cc1ccc(NS(=O)(=O)c2ccc3c(c2)C2OCCC2C(c2ccc(C(=O)C(C)C)cc2)N3)cc1C (stereo not drawn) [McX69-102]
Time after treatment at which cleavage of caspases-3, -9 and PARP can be detected (caspases-3, -9 and PARP): 8 h
